Source: PMC6289299 (Inorganic chemistry, 2018)

Tests used:
[1] = target: human carbonic anhydrase II (hCAII) (Homo sapiens, UniProt P00918); test: hCAII assay; type: biochemical
physchem [2] = type: physicochemical
physchem [3] = type: physicochemical; remark: listed apart in the source

For O=C(O)c1ccccn1 [Compound 1, picolinic acid], which IC50 [1] is on record?
Its IC50 is > 1000 µM.

What about the logP (physchem [2]) of the same compound?
Its logP is < -2.

And the logD (physchem [2]; pH 7.4)?
The logD was < -2.

What about the pKa (physchem [3]) of the same compound?
The pKa was < 1.5.
